{"source": "patent US6528675B1", "about": "“Cyanohydrin ethers and esters as high-sensitivity enzyme substrates” (The Regents of the University of California, priority 2001, dated 2003)", "key": {"[1]": {"assay": "Rate of conversion of cyanohydrin to aldehyde as a function of pH", "type": "physicochemical", "conditions": "pH 8.0 or greater, tris-maleate 0.1 M, 25° C.", "description": "This example illustrates the rate of conversion of a cyanohydrin formed in the practice of this invention to its corresponding aldehyde. The cyanohydrin used in this example is hydroxy-(6-methoxynaphthalen-2-yl) acetonitrile, which is the cyanohydrin formed by the action of an esterase on the substrate of Example 1.\nThe rate of cyanohydrin-to-aldehyde conversion was determined as a function of pH at constant ionic strength (0.1 M) and temperature (25° C.), using a series of tris-maleate buffers with different pH values ranging from 6.0 to 9.0 at intervals of 0.5. Conversion was initiated by the addition of 3 μL of 10 mM of cyanohydrin, and the formation of 6-methoxy-2-naphthaldehyde, measured in pmol cyanohydrin converted per second per mL, was detected by fluorescence excitation at 330 nm and emission at 460 nm over a time period of 20 minutes. […] The rate of aldehyde conversion increases rapidly at pH 8.0 or greater with maximum fluorescence achieved in less than 20 seconds."}, "[2]": {"assay": "Change in optical properties, UV absorption of esters and hydrolysis products", "type": "physicochemical", "conditions": "for ε (molar absorptivity): in M-1 cm-1 (unit assumed)", "excerpt": "The substrates representing the invention were (R/S)-acetic acid cyano-(6-methoxynaphthalen-2-yl)-methyl ester (the title compound of Synthesis Example 1 above) and (trans/cis)-3-(2,2-dichlorovinyl)-2,2-dimethylcyclopropanecarboxylic acid cyano-(6-methoxynaphthalen-2-yl)-methyl ester (the title compound of Synthesis Example 2 above)."}, "[3]": {"assay": "Substrate stability in buffer, fluorescence detection", "type": "physicochemical", "conditions": "5 min, 10 μM", "description": "(§1) The same two invention substrates and two prior art substrates were tested for stability by both UV detection and fluorescence detection under typical assay conditions.\n(§2) Tris maleate buffers (0.1 M) at pH ranging from 6.0 to 9.0 in intervals of 1.0 were used, and substrate was added to 10 μM final concentration. […] The fluorescence samples were read with excitation at 360 nm and emission at 460 nm (for pH 6.0), 465 nm (for pH 7.0), 485 nm (pH 8.0), and 510 nm (pH 9.0) for the methylumbelyl acetate, and with excitation at 330 nm and emission at 460 nm for the two test compounds, in all cases, the readings over 5-minute periods."}, "[4]": {"system": "homogenate of Heliothis virescens, pyrethroid-susceptible strain", "assay": "Specific activity of esterase against substrates", "type": "biochemical", "conditions": "H. virescens (susceptible), pH 8.0, 10 μM substrate, fluorescence 330/460 nm", "description": "(§3) The esterases were porcine esterase purchased from Sigma Chemical Company, St. Louis, Mo., USA, esterase from a rat liver microsomal preparation from 8-week-old Fisher 344 rats, and homogenates of Heliothis virescens from both pyrethroid-susceptible and -resistant strains of tobacco budworm. The substrate in each case was added to a tris-maleate buffer (pH 8.0, 0.1 m) to a final substrate concentration of 10 μM, followed by the addition of the enzyme preparation. The samples were then immediately read by fluorometer at 460 nm for one minute (excitation at 330 nm). The results are listed in Table VI, where “Compound I” denotes the Example 1 substrate, and “Compound II” denotes the Example 4 substrate."}, "[5]": {"system": "homogenate of Heliothis virescens, pyrethroid-resistant strain", "assay": "Specific activity of esterase against substrates", "type": "biochemical", "conditions": "H. virescens (resistant), pH 8.0, 10 μM substrate, fluorescence 330/460 nm", "description": "as §3"}, "porcine esterase [6]": {"system": "porcine esterase", "assay": "Specific activity of esterase against substrates", "type": "biochemical", "conditions": "pH 8.0, 10 μM substrate, fluorescence 330/460 nm", "description": "as §3"}, "[7]": {"assay": "Change in optical properties, fluorescence of esters and hydrolysis products", "type": "physicochemical", "excerpt": "The substrates representing the invention were (R/S)-acetic acid cyano-(6-methoxynaphthalen-2-yl)-methyl ester (the title compound of Synthesis Example 1 above) and (trans/cis)-3-(2,2-dichlorovinyl)-2,2-dimethylcyclopropanecarboxylic acid cyano-(6-methoxynaphthalen-2-yl)-methyl ester (the title compound of Synthesis Example 2 above). The substrates of the prior art were methylumbelyl acetate (for detection by fluorescence emission) and 2-naphthacetate (for detection by UV absorption) in assay solutions with different pH values. These prior art substrates were selected because both are widely used and both have aromatic systems similar to the two test compounds.\nAgain using tris-maleate at pH levels of 6.5, 7.5, and 8.5, fluorescence studies were performed at concentrations of 10 μM, and fluorescence of the starting esters and the hydrolysis products (hydroxycoumarin in the case of methylumbelyl acetate and 6-methoxy-naphthaldehyde in the case of the Example 1 substrate) were determined by conventional instrumentation. The results are listed in Table III in which “MUA” denotes methylumbelyl acetate, “Compound I” denotes the Example 1 substrate, “Ex” denotes the optimal excitation wavelength in nm, “Emmax” denotes the maximal emission wavelength in nm, and “RFU” denotes the relative fluorescence units multiplied by 1,000."}, "[8]": {"system": "esterase from a rat liver microsomal preparation", "assay": "Specific activity of esterase against substrates", "type": "biochemical, Fisher 344 rats", "conditions": "Rat liver microsome, pH 8.0, 10 μM substrate, fluorescence 330/460 nm", "description": "as §3"}, "porcine esterase [9]": {"system": "porcine esterase", "assay": "Sensitivity of substrate to enzyme strength", "type": "biochemical", "conditions": "pH 8.0, 10 μM substrate, 1 unit=1 μmol/min/mL", "description": "This example illustrates the sensitivity of the substrate to the enzyme, and compares a substrate in accordance with the present invention to two prior art substrates. […] The enzyme was porcine esterase.\nA tris-maleate buffer at pH 8.0 (0.1 M) was used. The procedure consisted of adding substrate to a test tube containing 3 mL of buffer to a final substrate concentration of 10 μM, then adding porcine esterase at strengths of 0.06, 0.09. 0.12, 0.18, 0.30, 0.60, 0.9 and 1.2 unit, in which 1 unit=1 μmol/min/mL. […] The enzyme sensitivities for each substrate and detection method were defined as the minimal amount of enzyme per mL required to produce a signal from the substrate that was at least three times greater than the background noise."}, "[10]": {"assay": "Substrate stability in buffer, UV detection", "type": "physicochemical", "conditions": "5 min, 10 μM", "description": "as §1, §2"}}}
{"molecule": "COc1ccc2cc(C(O)C#N)ccc2c1", "note": "(centres unmarked) [cyanohydrin, hydroxy-(6-methoxynaphthalen-2-yl) acetonitrile]", "values": [{"measurement": "time to maximum fluorescence (cyanohydrin-to-aldehyde conversion)", "setting": "[1]", "result": "less than 20 seconds"}]}
{"molecule": "COc1ccc2cc(C(C#N)OC(C)=O)ccc2c1", "note": "(racemic) [Compound I, (R/S)-Acetic Acid Cyano-(6-methoxy-naphthalen-2-yl) Methyl Ester]", "values": [{"measurement": "melting point", "result": "84 to 85", "unit": "°C"}, {"measurement": "OD (optical density)", "setting": "[2]; tris-maleate pH 6.5, 10 μM", "result": 0.086}, {"measurement": "λmax", "setting": "[2]; tris-maleate pH 6.5, 10 μM", "result": 287, "unit": "nm"}, {"measurement": "ε (molar absorptivity)", "setting": "[2]; tris-maleate pH 6.5, 10 μM", "result": "3,000"}, {"measurement": "OD (optical density)", "setting": "[2]; tris-maleate pH 7.5, 10 μM", "result": 0.137}, {"measurement": "λmax", "setting": "[2]; tris-maleate pH 7.5, 10 μM", "result": 287, "unit": "nm"}, {"measurement": "ε (molar absorptivity)", "setting": "[2]; tris-maleate pH 7.5, 10 μM", "result": "3,420"}, {"measurement": "OD (optical density)", "setting": "[2]; tris-maleate pH 8.5, 10 μM", "result": 0.142}, {"measurement": "λmax", "setting": "[2]; tris-maleate pH 8.5, 10 μM", "result": 287, "unit": "nm"}, {"measurement": "ε (molar absorptivity)", "setting": "[2]; tris-maleate pH 8.5, 10 μM", "result": "3,550"}, {"measurement": "Substrate stability, Fluorescence", "setting": "[3]; pH 6", "result": "<1", "unit": "pmol/min"}, {"measurement": "Substrate stability, Fluorescence", "setting": "[3]; pH 7", "result": 8, "unit": "pmol/min"}, {"measurement": "Substrate stability, Fluorescence", "setting": "[3]; pH 8", "result": 59, "unit": "pmol/min"}, {"measurement": "Substrate stability, Fluorescence", "setting": "[3]; pH 9", "result": 138, "unit": "pmol/min"}, {"measurement": "Specific Activity", "setting": "[4]", "result": "9,700 ± 220 pmol/min/mg protein"}, {"measurement": "Specific Activity", "setting": "[5]", "result": "25,100 ± 425 pmol/min/mg protein"}, {"measurement": "Specific Activity", "setting": "porcine esterase [6]", "result": "2,911,000 ± 1,780 pmol/min/mg protein"}, {"measurement": "emission peak", "setting": "[7]; over the three pH levels tested (6.5, 7.5, 8.5)", "result": 366, "unit": "nm"}, {"measurement": "Emmax (maximal emission wavelength)", "setting": "[7]; tris-maleate pH 6.5, 10 μM", "result": 410, "unit": "nm"}, {"measurement": "Ex (optimal excitation wavelength)", "setting": "[7]; tris-maleate pH 6.5, 10 μM", "result": 360, "unit": "nm"}, {"measurement": "RFU (relative fluorescence units multiplied by 1,000)", "setting": "[7]; tris-maleate pH 6.5, 10 μM", "result": 241, "unit": "RFU"}, {"measurement": "Emmax (maximal emission wavelength)", "setting": "[7]; tris-maleate pH 7.5, 10 μM", "result": 450, "unit": "nm"}, {"measurement": "Ex (optimal excitation wavelength)", "setting": "[7]; tris-maleate pH 7.5, 10 μM", "result": 360, "unit": "nm"}, {"measurement": "RFU (relative fluorescence units multiplied by 1,000)", "setting": "[7]; tris-maleate pH 7.5, 10 μM", "result": 581, "unit": "RFU"}, {"measurement": "Emmax (maximal emission wavelength)", "setting": "[7]; tris-maleate pH 8.5, 10 μM", "result": 450, "unit": "nm"}, {"measurement": "Ex (optimal excitation wavelength)", "setting": "[7]; tris-maleate pH 8.5, 10 μM", "result": 360, "unit": "nm"}, {"measurement": "RFU (relative fluorescence units multiplied by 1,000)", "setting": "[7]; tris-maleate pH 8.5, 10 μM", "result": "3,708 RFU"}, {"measurement": "Specific Activity", "setting": "[8]", "result": "39,800 ± 600 pmol/min/mg protein"}, {"measurement": "Sensitivity (minimal amount of enzyme per mL giving a signal at least three times background noise)", "setting": "porcine esterase [9]; Fluorescence detection", "result": 0.00002}, {"measurement": "Sensitivity (minimal amount of enzyme per mL giving a signal at least three times background noise)", "setting": "porcine esterase [9]; UV detection", "result": 0.001}, {"measurement": "Substrate stability, UV Absorption", "setting": "[10]; pH 6", "result": "<0.01", "unit": "mAbs/min"}, {"measurement": "Substrate stability, UV Absorption", "setting": "[10]; pH 7", "result": "<0.01", "unit": "mAbs/min"}, {"measurement": "Substrate stability, UV Absorption", "setting": "[10]; pH 8", "result": "<0.01", "unit": "mAbs/min"}, {"measurement": "Substrate stability, UV Absorption", "setting": "[10]; pH 9", "result": 0.103, "unit": "mAbs/min"}]}
